Measured values taken from publication PMC7463714, “Design and Synthesis of Novel Hybrid 8-Hydroxy Quinoline-Indole Derivatives as Inhibitors of Aβ Self-Aggregation and Metal Chelation-Induced Aβ Aggregation” (Molecules, 2020).
Entries after “also recorded” stand apart in the source; their conditions may differ.

Tests used:
Aβ1–42 = target: T1, Aβ1–42 (Homo sapiens, UniProt P05067); test: Self-induced Aβ1–42 aggregation, thioflavin T (ThT) fluorescence assay; assay type: biochemical; conditions: 25 µM Aβ1–42; compound 0.3-27 µM; 37 °C, 48 h; ThT fluorescence; read-out: EC50 against self-induced Aβ1–42 aggregation
T1 construct: Aβ1–42 (Adooq Bioscience, CA, USA); purchased Adooq Bioscience
Protocol: The novel hybrid 8-hydroxyquinoline-indole derivatives, 7a–7e, 12a, 12b, and the (8-hydroxyquinolin-2-yl)methyl-4-(1H-indole-2-carbonyl)piperazine-1-carboxylate analogs 18a–18h were evaluated for inhibitory activity against self-induced Aβ1–42 aggregation at five different concentrations (0.3, 1.0, 3, 9 and 27 µM) with 25 µM Aβ1–42, utilizing a thioflavin T (ThT) fluorescence assay with clioquinol, 1 as a positive control (Figure 3). In the absence of inhibitor, the self-induced Aβ1–42 aggregation ThT fluorescence was recorded as 115 arbitrary units (a.u.). The self-induced Aβ1–42 aggregation results for all the above synthetic analogs from the ThT fluorescence assay are shown in Table 1. […] The thioflavin T (ThT)-fluorescence assay was used to measure the inhibition of Aβ aggregation. Aβ1–42 (Adooq Bioscience, CA, USA) was pretreated with 1 mL of hexafluoroisopropanol (HFIP) to afford a stock solution, which was aliquoted into small samples. The solvent was evaporated at room temperature, and samples were stored at −80 °C. For Aβ1–42 aggregation inhibition experiments, phosphate buffer (pH 7.4) was added to the Aβ stock solution to afford a 50 µM concentration before use. A mixture of the Aβ1–42 peptide (10 µL, 25 µM final concentration) with or without the test compound (10 µL; 0.3, 1.0, 3, 9, and 27 µM) was incubated at 37 °C for 48 h. Blanks using phosphate buffer (pH 7.4) instead of Aβ, with or without test compound, were also assessed. Then 50 mM glycine-NaOH buffer (pH 8.0) containing ThT (5 µM) was added to 20 µL of the sample to afford a final volume of 200 µL. The fluorescence intensities were recorded (excitation, 450 nm; emission, 485 nm). The fluorescence intensities were background corrected to the no enzyme control and 100% of intensity reflected no inhibition of aggregation. To obtain the normalized amyloid aggregation inhibition relative to the control group, the amyloid aggregation/cell values were further divided by the total amyloid fluorescence of the control group. Using GraphPad Prism, the amyloid aggregation values (relative to control group) were entered along the corresponding concentrations for the triplicates and then a log transformation was obtained. Using the dose–response simulation module in GraphPad Prism, nonlinear regression fit (curve) was then generated for each small molecule with various concentrations used. Curves were then compared to determine if they were statistically different, by performing the best-fit values of selected unshared parameters between data sets and extra sum-of-squares F test, allowing for selection of the simpler model unless the P value was less than 0.05. The logEC50 output parameter was then selected to obtain the EC50 for each of the dose–response curves for the small molecules.

SY5Y-APPSw cells = test: Protein aggregation in SY5Y-APPSw cells (ThT staining); assay type: cell-based; conditions: 1 µM, 48 h, 37 °C; compared to clioquinol (1)
Protocol: In another study compounds 7a–7d, 18c–18f, and 18h were also evaluated for their ability to reduce protein aggregation in SY5Y-APPSw cells. SY5Y-APPSw cells were exposed to the above protein aggregation inhibitors and parent compound 1 at 1 µM for 48 h at 37 °C. Cells were assessed for amyloid deposits by staining with 0.1% w/v ThT, counterstaining nuclei with DAPI, and mean ThT fluorescence signal per nucleus calculated over multiple fields. All the analogs reduced fluorescence intensity (indicative of protein aggregation) by 22–67% (P < 0.001 by 2-tailed t-test). […] Thioflavin-T fluorescence assays for in vitro amyloid aggregation and cell culture models of amyloid aggregation overlap but are not identical. This is due to the fact that thioflavin in cell-culture stains not just amyloid aggregates but also other amyloid-like fibrillar structures. Another important difference is that in vitro aggregation is assessed after 24 h, whereas aggregation in cell culture is assessed after 48 h.
(§1) Human Embryonic Kidney cells that overexpress tau protein (HEK-tau) cells or SY5Y neuroblastoma cells that express a familial-AD mutant of amyloid precursor protein (SY5Y-APPSw cells) were each seeded in 96-well plates at 8000 cells per well. After 24 h, cells were supplemented with test compound at 1 µM after diluting with medium. Vehicle only control was also included for each experiment. The cells were cultured for an additional 48 h at 37 °C. Both the cell lines were able to reach approximately 80% confluency in 48 h. Cells were assessed for amyloid deposits by staining with 0.1% w/v ThT, counterstaining nuclei with DAPI, and calculating mean ThT fluorescence signal per nucleus over multiple fields.

[1] = target: T2, Zn^2+-induced Aβ1–42 aggregation (Homo sapiens, UniProt P05067); test: Zn2+-induced Aβ1–42 aggregation, ThT fluorescence assay; assay type: biochemical; conditions: compound 50 µM; Aβ1–42 25 µM; Zn^2+ 25 µM; 24 h, 37 °C
T2 construct: Aβ1–42 (Adooq Bioscience, CA, USA); purchased Adooq Bioscience
Protocol: (§2) Initially, CuSO4 or ZnCl2 was added to Aβ1–42 peptides at room temperature and the mixture incubated with or without drugs for 24 h at 37 °C. The fluorescence intensity of Aβ1–42 peptide alone was designated as 100%.
(§3) Mixtures of the peptide (10 µL, 25 µM final concentration) with or without Cu^2+ or Zn^2+ (10 µL, 25 μM final concentration) and the test compound (10 µL, 50 μM final concentration) were incubated at 37 °C for 24 h. Then 50 mM glycine-NaOH buffer (pH 8.0) containing ThT (5 µM) was added to 20 µL of the sample and diluted to afford a final volume of 200 µL. Fluorescence intensities of the solutions were recorded (excitation, 450 nm; emission, 485 nm). The percentage of […] was calculated by the expression (1 − IFi/IFc) × 100, in which IFi and IFc are the fluorescence intensities obtained for Aβ in the presence and absence of inhibitors, respectively.

HEK-tau cells = test: Protein aggregation in HEK-tau cells (ThT staining); assay type: cell-based, Human; conditions: 1 µM, 48 h, 37 °C; compared to clioquinol (1)
Protocol: In our study, we have shown that restoring metal homeostasis by treatment with hybrid 8-hydroxyquinoline-indole analogs reduces tau- and amyloid-mediated protein aggregation, and their associated neurotoxicity. Analogs 7a–7d, 18c–18f, and 18h were evaluated for their ability to reduce protein aggregation in HEK-tau cells. HEK-tau cells were exposed to the above Aβ1–42 aggregation inhibitors and parent drug clioquinol (1) at 1 µM for 48 h at 37 °C. Cells were assessed for amyloid deposits by staining with 0.1% w/v thioflavin T, counterstaining nuclei with DAPI, and mean ThT fluorescence signal per nucleus was calculated over multiple fields. All the analogs reduced fluorescence intensity (indicative of protein aggregation) by 26–62% (P < 0.001 by 2-tailed t-test).
as §1

[2] = target: T3, Cu^2+-induced Aβ1–42 aggregation (Homo sapiens, UniProt P05067); test: Cu2+-induced Aβ1–42 aggregation, ThT fluorescence assay; assay type: biochemical; conditions: compound 50 µM; Aβ1–42 25 µM; Cu^2+ 25 µM; 24 h, 37 °C
T3 construct: Aβ1–42 (Adooq Bioscience, CA, USA); purchased Adooq Bioscience
Protocol: as §2, §3

T2 sequence (P05067 672-713 limits assumed): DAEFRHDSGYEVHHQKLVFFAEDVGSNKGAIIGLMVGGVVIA
T1 sequence (P05067 672-713 limits assumed): as above
T3 sequence (P05067 672-713 limits assumed): as above

SMILES | EC50 (Aβ1–42) | also measured
O=C(OCc1ccc2cccc(O)c2n1)c1cc2ccccc2[nH]1 [Compound 7a, (8-Hydroxyquinolin-2-yl)methyl-1H-indole-2-carboxylate] | 4.26 µM | protein aggregation inhibition in SY5Y-APPSw cells, result in words (SY5Y-APPSw cells): most effective
O=C(OCc1ccc2c(Cl)cc(Cl)c(O)c2n1)c1cc2cc(F)ccc2[nH]1 [Compound 7e, (5,7-Dichloro-8-hydroxyquinolin-2-yl)methyl-5-fluoro-1H-indole-2-carboxylate] | 9.52 µM | 
O=C(OCc1ccc2cccc(O)c2n1)c1cc2cc(F)ccc2[nH]1 [Compound 7d, (8-Hydroxyquinolin-2-yl)methyl-5-fluoro-1H-indole-2-carboxylate] | 6.34 µM | 
O=C(OCc1ccc2c(Br)cc(Br)c(O)c2n1)N1CCN(C(=O)c2cc3ccccc3[nH]2)CC1 [Compound 18b, (5,7-Dibromo-8-hydroxyquinolin-2-yl)methyl-4-(1H-indole-2-carbonyl)piperazine-1-carboxylate] | > 10 µM | 
O=C(OCc1ccc2cccc(O)c2n1)N1CCN(C(=O)c2cc3cc(F)ccc3[nH]2)CC1 [Compound 18h] | 2.58 µM | 
O=C(O)c1cc2ccccc2[nH]1 [Compound 5a, 1H-indole-2-carboxylic acid, reference compound] | > 20 µM | 
COc1ccc2[nH]c(C(=O)N3CCN(C(=O)OCc4ccc5cccc(O)c5n4)CC3)cc2c1 [Compound 18d, (8-Hydroxyquinolin-2-yl)methyl-4-(5-methoxy-1H-indole-2-carbonyl)piperazine-1-carboxylate] | 1.48 µM | decrease of ThT fluorescence / inhibition of Zn^2+-induced Aβ1–42 aggregation [1]: 59.3%; protein aggregation inhibition in HEK-tau cells, result in words (HEK-tau cells): effective in reducing protein aggregation; protein aggregation inhibition in SY5Y-APPSw cells, result in words (SY5Y-APPSw cells): most effective; also recorded: effective in reducing protein aggregation; decrease of ThT fluorescence / inhibition of Cu^2+-induced Aβ1–42 aggregation [2]: 66.1%
COc1ccc2[nH]c(C(=O)N3CCN(C(=O)OCc4ccc5c(Br)cc(Br)c(O)c5n4)CC3)cc2c1 [Compound 18e, (5,7-Dibromo-8-hydroxyquinolin-2-yl)methyl-4-(5-methoxy-1H-indole-2-carbonyl)piperazine-1-carboxylate] | 2.49 µM | 
COc1ccc2[nH]c(C(=O)OCc3ccc4cccc(O)c4n3)cc2c1 [Compound 7c, (8-Hydroxyquinolin-2-yl)methyl-5-methoxy-1H-indole-2-carboxylate] | 3.22 µM | 
Oc1c(I)cc(Cl)c2cccnc12 [Compound 1, Clioquinol, reference compound] | 9.95 µM | decrease of ThT fluorescence / inhibition of Zn^2+-induced Aβ1–42 aggregation [1]: 57.2%; decrease of ThT fluorescence / inhibition of Cu^2+-induced Aβ1–42 aggregation [2]: 62.5%
O=C(NCc1ccc2c(Cl)cc(Cl)c(O)c2n1)c1cc2ccccc2[nH]1 [Compound 12a, N-((5,7-Dichloro-8-hydroxyquinolin-2-yl)methyl)-1H-indole-2-carboxamide] | > 10 µM | 
O=C(OCc1ccc2c(Cl)cc(Cl)c(O)c2n1)c1cc2ccccc2[nH]1 [Compound 7b, (5,7-Dichloro-8-hydroxyquinolin-2-yl)methyl-1H-indole-2-carboxylate] | 9.28 µM | 
O=C(OCc1ccc2cccc(O)c2n1)N1CCN(C(=O)c2cc3ccccc3[nH]2)CC1 [Compound 18a, (8-Hydroxyquinolin-2-yl)methyl-4-(1H-indole-2-carbonyl)piperazine-1-carboxylate] | > 10 µM | 
O=C(OCc1ccc2c(Cl)cc(Cl)c(O)c2n1)N1CCN(C(=O)c2cc3ccccc3[nH]2)CC1 [Compound 18c, (5,7-Dichloro-8-hydroxyquinolin-2-yl)methyl-4-(1H-indole-2-carbonyl)piperazine-1-carboxylate] | 1.72 µM | decrease of ThT fluorescence / inhibition of Zn^2+-induced Aβ1–42 aggregation [1]: 70.3%; protein aggregation inhibition in HEK-tau cells, result in words (HEK-tau cells): most effective; also recorded: effective in reducing protein aggregation; protein aggregation inhibition in SY5Y-APPSw cells, result in words (SY5Y-APPSw cells): effective in reducing protein aggregation; decrease of ThT fluorescence / inhibition of Cu^2+-induced Aβ1–42 aggregation [2]: 76.6%
COc1ccc2[nH]c(C(=O)NCc3ccc4c(Cl)cc(Cl)c(O)c4n3)cc2c1 [Compound 12b, N-((5,7-Dichloro-8-hydroxyquinolin-2-yl)methyl)-5-methoxy-1H-indole-2-carboxamide] | > 10 µM | 
O=C(OCc1ccc2c(Cl)cc(Cl)c(O)c2n1)N1CCN(C(=O)c2cc3cc(F)ccc3[nH]2)CC1 [Compound 18g, (5,7-Dichloro-8-hydroxyquinolin-2-yl)methyl-4-(5-fluoro-1H-indole-2-carbonyl)piperazine-1-carboxylate] | > 10 µM | 
